Key:
[1] = molecular target: Melanocortin receptor 3 (Homo sapiens, UniProt P41968)
[2] = molecular target: T1, Equilibrative nucleoside transporter 1 (Homo sapiens, UniProt Q99808)
T1 sequence (Q99808 whole entry): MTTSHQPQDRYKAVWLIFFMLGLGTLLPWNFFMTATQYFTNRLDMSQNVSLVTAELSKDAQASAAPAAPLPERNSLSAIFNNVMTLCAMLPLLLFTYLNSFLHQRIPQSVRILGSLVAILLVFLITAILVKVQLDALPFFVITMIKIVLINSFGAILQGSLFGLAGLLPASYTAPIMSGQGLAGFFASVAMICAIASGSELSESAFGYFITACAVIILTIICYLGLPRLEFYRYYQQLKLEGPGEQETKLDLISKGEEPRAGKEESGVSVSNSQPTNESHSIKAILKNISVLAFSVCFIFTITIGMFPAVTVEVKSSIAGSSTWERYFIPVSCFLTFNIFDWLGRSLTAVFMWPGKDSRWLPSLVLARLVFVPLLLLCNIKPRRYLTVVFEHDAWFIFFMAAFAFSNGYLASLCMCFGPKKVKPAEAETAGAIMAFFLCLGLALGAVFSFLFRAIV

[3] = molecular target: T2, Thromboxane A2 receptor (Homo sapiens, UniProt P21731)
T2 sequence (P21731 whole entry): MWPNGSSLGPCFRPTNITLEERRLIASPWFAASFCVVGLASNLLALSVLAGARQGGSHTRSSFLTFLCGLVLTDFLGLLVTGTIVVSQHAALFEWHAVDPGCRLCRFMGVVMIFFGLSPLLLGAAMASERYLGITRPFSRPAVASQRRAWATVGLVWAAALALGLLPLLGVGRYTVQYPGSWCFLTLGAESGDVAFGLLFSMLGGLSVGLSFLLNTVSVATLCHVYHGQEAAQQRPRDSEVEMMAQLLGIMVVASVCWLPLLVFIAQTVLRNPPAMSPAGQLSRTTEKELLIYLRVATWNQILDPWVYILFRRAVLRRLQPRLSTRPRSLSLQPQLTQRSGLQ

[4] = molecular target: Histamine H2 receptor (Homo sapiens, UniProt P25021); type: functional, cell-based
[5] = molecular target: T3, 5-hydroxytryptamine receptor 1A (Homo sapiens, UniProt P08908); type: functional, cell-based
T3 sequence (P08908 whole entry): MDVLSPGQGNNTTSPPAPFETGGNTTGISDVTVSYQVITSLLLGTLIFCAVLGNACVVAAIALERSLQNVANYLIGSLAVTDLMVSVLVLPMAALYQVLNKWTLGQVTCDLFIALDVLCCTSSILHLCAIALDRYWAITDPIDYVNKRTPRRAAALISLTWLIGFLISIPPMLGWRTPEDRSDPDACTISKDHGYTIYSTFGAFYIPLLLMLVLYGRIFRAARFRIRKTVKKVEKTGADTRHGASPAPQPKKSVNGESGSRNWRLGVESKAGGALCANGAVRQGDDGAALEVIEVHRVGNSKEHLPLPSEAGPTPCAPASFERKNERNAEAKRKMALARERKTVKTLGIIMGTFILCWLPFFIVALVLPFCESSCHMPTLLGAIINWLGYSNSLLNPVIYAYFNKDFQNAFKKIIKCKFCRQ

[6] = molecular target: D(1A) dopamine receptor (Homo sapiens, UniProt P21728); type: functional, cell-based
[7] = molecular target: T3, 5-hydroxytryptamine receptor 1A; type: functional, cell-based; remark: listed apart in the source
[8] = molecular target: T4, 5-hydroxytryptamine receptor 3A (Homo sapiens, UniProt P46098); type: functional
T4 sequence (P46098 whole entry): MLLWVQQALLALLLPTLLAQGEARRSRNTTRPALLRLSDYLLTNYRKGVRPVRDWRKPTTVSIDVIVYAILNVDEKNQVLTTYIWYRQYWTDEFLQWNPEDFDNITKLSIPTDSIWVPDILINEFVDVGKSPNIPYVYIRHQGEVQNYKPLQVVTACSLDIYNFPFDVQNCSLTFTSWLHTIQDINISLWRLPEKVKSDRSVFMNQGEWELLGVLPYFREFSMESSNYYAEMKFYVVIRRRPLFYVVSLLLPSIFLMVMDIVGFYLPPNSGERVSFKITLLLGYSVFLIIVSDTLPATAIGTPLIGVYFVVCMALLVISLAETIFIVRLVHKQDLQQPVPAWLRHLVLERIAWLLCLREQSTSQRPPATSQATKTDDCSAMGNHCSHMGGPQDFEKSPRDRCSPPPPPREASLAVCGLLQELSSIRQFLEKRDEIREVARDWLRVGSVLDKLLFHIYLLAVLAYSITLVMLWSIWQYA

[9] = molecular target: T5, Progesterone receptor (Homo sapiens, UniProt P06401); type: functional
T5 sequence (P06401 whole entry): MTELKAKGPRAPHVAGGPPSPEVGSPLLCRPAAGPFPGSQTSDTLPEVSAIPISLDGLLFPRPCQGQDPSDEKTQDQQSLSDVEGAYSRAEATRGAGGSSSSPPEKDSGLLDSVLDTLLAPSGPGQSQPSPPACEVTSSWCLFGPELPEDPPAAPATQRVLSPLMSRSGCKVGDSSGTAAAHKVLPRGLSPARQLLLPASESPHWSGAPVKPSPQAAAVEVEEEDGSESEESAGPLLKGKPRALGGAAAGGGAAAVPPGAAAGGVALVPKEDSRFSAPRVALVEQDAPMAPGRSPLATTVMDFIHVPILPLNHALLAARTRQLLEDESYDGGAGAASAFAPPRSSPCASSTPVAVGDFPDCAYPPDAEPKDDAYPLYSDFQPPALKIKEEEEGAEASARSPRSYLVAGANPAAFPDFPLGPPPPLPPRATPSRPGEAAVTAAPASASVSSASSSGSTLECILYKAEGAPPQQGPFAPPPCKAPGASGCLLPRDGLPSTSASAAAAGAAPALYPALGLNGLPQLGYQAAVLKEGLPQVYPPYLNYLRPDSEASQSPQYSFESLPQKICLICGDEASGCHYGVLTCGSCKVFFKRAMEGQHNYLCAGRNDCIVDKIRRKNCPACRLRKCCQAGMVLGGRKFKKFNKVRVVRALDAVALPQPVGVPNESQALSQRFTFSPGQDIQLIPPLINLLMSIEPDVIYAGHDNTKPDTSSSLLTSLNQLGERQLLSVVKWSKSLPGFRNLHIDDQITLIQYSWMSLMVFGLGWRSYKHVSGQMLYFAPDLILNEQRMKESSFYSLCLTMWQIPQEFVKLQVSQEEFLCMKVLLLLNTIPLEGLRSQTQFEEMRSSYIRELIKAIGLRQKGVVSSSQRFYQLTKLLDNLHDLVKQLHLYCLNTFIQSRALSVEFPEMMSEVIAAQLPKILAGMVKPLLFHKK

[10] = molecular target: Gamma-aminobutyric acid receptor subunit alpha-1 (Rattus norvegicus, UniProt P62813)
Also: assay procedure not described here.

Sequence of D(1A) dopamine receptor (P21728 whole entry): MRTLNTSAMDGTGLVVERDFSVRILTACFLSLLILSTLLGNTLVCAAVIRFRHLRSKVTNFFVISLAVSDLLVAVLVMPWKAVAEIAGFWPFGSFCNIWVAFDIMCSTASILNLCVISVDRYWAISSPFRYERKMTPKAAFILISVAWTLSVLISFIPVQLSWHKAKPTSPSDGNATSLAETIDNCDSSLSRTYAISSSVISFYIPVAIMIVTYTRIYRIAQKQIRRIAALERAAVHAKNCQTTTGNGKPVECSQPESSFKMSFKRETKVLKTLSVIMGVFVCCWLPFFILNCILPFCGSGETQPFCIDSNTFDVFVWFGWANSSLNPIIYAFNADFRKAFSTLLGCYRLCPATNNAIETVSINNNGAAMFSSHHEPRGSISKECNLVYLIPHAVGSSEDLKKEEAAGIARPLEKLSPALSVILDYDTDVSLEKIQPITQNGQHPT
Sequence of Gamma-aminobutyric acid receptor subunit alpha-1 (P62813 whole entry): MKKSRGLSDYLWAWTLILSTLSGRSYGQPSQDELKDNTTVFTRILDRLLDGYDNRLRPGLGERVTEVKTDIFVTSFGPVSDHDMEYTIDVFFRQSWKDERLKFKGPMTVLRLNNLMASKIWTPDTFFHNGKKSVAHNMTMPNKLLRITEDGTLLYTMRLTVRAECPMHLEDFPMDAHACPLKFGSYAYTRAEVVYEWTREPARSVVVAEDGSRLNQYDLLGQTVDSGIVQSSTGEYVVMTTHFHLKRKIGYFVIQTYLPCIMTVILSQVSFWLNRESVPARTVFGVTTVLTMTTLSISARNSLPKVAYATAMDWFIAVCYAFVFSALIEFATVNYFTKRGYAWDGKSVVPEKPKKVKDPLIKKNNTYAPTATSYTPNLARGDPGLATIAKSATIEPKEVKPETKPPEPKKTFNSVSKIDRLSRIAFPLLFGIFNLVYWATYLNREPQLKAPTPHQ
Sequence of Melanocortin receptor 3 (P41968 whole entry): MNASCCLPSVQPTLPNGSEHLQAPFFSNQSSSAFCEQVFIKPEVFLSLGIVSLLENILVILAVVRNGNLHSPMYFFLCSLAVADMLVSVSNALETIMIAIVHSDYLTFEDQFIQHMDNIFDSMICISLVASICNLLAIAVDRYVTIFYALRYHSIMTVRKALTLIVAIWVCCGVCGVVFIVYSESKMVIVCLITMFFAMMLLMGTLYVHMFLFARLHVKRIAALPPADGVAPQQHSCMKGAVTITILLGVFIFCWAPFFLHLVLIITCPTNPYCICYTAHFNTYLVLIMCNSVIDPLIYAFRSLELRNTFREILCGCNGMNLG
Sequence of Histamine H2 receptor (P25021 whole entry): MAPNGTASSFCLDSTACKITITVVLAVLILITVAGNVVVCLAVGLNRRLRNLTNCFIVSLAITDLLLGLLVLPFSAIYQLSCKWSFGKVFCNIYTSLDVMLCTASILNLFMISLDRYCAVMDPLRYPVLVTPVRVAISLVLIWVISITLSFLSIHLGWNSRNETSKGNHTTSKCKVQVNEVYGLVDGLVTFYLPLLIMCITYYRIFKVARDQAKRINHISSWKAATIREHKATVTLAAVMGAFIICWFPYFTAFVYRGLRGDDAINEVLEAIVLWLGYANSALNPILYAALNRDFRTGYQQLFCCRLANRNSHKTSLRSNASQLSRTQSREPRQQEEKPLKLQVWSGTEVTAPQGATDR

Row | Compound | AC50 [1] | AC50 [2] | AC50 [3] | AC50 [4] | AC50 [5] | AC50 [6] | AC50 [7] | AC50 [8] | AC50 [9] | AC50 [10]
1 | COc1ccc(C(Cl)=C(c2ccc(OC)cc2)c2ccc(OC)cc2)cc1 [CHLOROTRIANISENE] | > 30 µM | > 30 µM | > 10 µM | > 30 µM | > 10 µM | > 30 µM | > 30 µM | > 30 µM | > 30 µM | > 30 µM
2 | CCC(=O)[C@@]1(C)[C@H](C)C[C@H]2[C@@H]3CCC4=CC(=O)C=C[C@]4(C)[C@H]3[C@@H](O)C[C@@]21C [RIMEXOLONE] | > 10 µM | > 10 µM | > 10 µM | > 10 µM | > 10 µM | > 10 µM | > 10 µM | > 30 µM | 0.0032 µM | > 10 µM
3 | CC(C(=O)O)c1ccc(C(=O)c2ccccc2)s1 (stereo not given) [TIAPROFENIC ACID] | > 10 µM | > 10 µM | > 10 µM | > 10 µM | > 10 µM | > 10 µM | > 10 µM | > 30 µM | > 10 µM | > 10 µM
4 | CCC(NC(C)C)C(O)c1ccc(O)c(O)c1 (stereo not given) [ISOETHARINE] | > 30 µM | > 30 µM | > 30 µM | > 30 µM | > 30 µM | > 30 µM | > 30 µM | > 30 µM | > 30 µM | > 30 µM

Second part, the compound after the results:

Row | AC50 [1] | AC50 [2] | AC50 [3] | AC50 [4] | AC50 [5] | AC50 [6] | AC50 [7] | AC50 [8] | AC50 [9] | AC50 [10] | Compound
5 | > 30 µM | > 30 µM | > 30 µM | > 30 µM | > 30 µM | > 30 µM | > 30 µM | > 30 µM | > 30 µM | > 30 µM | CCCCC[C@H](O)CC[C@@H]1[C@H]2Cc3cccc(OCC(=O)O)c3C[C@H]2C[C@H]1O [TREPROSTINIL]
6 | > 30 µM | > 10 µM | 20.8 µM | > 10 µM | > 10 µM | > 10 µM | > 10 µM | > 30 µM | > 10 µM | > 10 µM | Cc1cccc(Nc2ccncc2S(=O)(=O)NC(=O)NC(C)C)c1 [TORSEMIDE]

Source: ChEMBL document CHEMBL5291721, “A preclinical secondary pharmacology resource illuminates target-adverse drug reaction associations of marketed drugs” (Nat Commun, 2023)
